Where “and” joins values, the source holds several entries; their conditions need not be identical. Equal values may be shown once.
Assay: xn = mol fraction of the nth substance listed

C1CCCCC1 + CCO
Conditions	viscosity [mPa·s]
293.15 K, 101.3 kPa, x1 = 0.0565	1.143
293.15 K, 101.3 kPa, x1 = 0.2674	1.028
293.15 K, 101.3 kPa, x1 = 0.3539	0.9953
293.15 K, 101.3 kPa, x1 = 0.4506	0.9698
293.15 K, 101.3 kPa, x1 = 0.5626	0.9436
293.15 K, 101.3 kPa, x1 = 0.6898	0.9184
293.15 K, 101.3 kPa, x1 = 0.8348	0.9099
298.15 K, 101 kPa, x2 = 0.0396	0.871
298.15 K, 101 kPa, x2 = 0.0718	0.867
298.15 K, 101 kPa, x2 = 0.1435	0.851
298.15 K, 101 kPa, x2 = 0.3225	0.839
298.15 K, 101 kPa, x2 = 0.4832	0.864
298.15 K, 101 kPa, x2 = 0.6269	0.901
298.15 K, 101 kPa, x2 = 0.7067	0.923
298.15 K, 101 kPa, x2 = 0.8205	0.967
298.15 K, 101.3 kPa, x1 = 0.0565	1.037
298.15 K, 101.3 kPa, x1 = 0.1188	0.9995
298.15 K, 101.3 kPa, x1 = 0.1894	0.9602
298.15 K, 101.3 kPa, x1 = 0.2674	0.9303
298.15 K, 101.3 kPa, x1 = 0.3539	0.9067
298.15 K, 101.3 kPa, x1 = 0.4506	0.8821
298.15 K, 101.3 kPa, x1 = 0.5626	0.8589
298.15 K, 101.3 kPa, x1 = 0.6898	0.8388
298.15 K, 101.3 kPa, x1 = 0.8348	0.8319
298.15 K, 101.33 kPa, x1 = 0.0999	1.003
298.15 K, 101.33 kPa, x1 = 0.1993	0.951
298.15 K, 101.33 kPa, x1 = 0.2995	0.923
298.15 K, 101.33 kPa, x1 = 0.3987	0.892
298.15 K, 101.33 kPa, x1 = 0.5003	0.872
298.15 K, 101.33 kPa, x1 = 0.55	0.861
298.15 K, 101.33 kPa, x1 = 0.6011	0.851
298.15 K, 101.33 kPa, x1 = 0.7014	0.831
298.15 K, 101.33 kPa, x1 = 0.803	0.826
298.15 K, 101.33 kPa, x1 = 0.9006	0.84
303.15 K, 101.3 kPa, x1 = 0.0565	0.947
303.15 K, 101.3 kPa, x1 = 0.1188	0.9133
303.15 K, 101.3 kPa, x1 = 0.1894	0.8784
303.15 K, 101.3 kPa, x1 = 0.2674	0.8522
303.15 K, 101.3 kPa, x1 = 0.3539	0.8288
303.15 K, 101.3 kPa, x1 = 0.4506	0.8084
303.15 K, 101.3 kPa, x1 = 0.5626	0.786
303.15 K, 101.3 kPa, x1 = 0.6898	0.7655
303.15 K, 101.3 kPa, x1 = 0.8348	0.7647
303.15 K, 101.33 kPa, x2 = 0.0952	0.7883
303.15 K, 101.33 kPa, x2 = 0.1976	0.7705
303.15 K, 101.33 kPa, x2 = 0.2988	0.7735
303.15 K, 101.33 kPa, x2 = 0.3894	0.7762
303.15 K, 101.33 kPa, x2 = 0.4879	0.7852
303.15 K, 101.33 kPa, x2 = 0.5929	0.8063
303.15 K, 101.33 kPa, x2 = 0.7828	0.8609
303.15 K, 101.33 kPa, x2 = 0.9018	0.921
308.15 K, 101 kPa, x2 = 0.0396	0.741
308.15 K, 101 kPa, x2 = 0.0718	0.729
308.15 K, 101 kPa, x2 = 0.1435	0.716
308.15 K, 101 kPa, x2 = 0.3225	0.707
308.15 K, 101 kPa, x2 = 0.4832	0.726
308.15 K, 101 kPa, x2 = 0.6269	0.752
308.15 K, 101 kPa, x2 = 0.7067	0.772
308.15 K, 101 kPa, x2 = 0.8205	0.807
308.15 K, 101 kPa, x2 = 0.8789	0.835
308.15 K, 101 kPa, x2 = 0.9548	0.875
308.15 K, 101.3 kPa, x1 = 0.0565	0.8683
308.15 K, 101.3 kPa, x1 = 0.1188	0.8383
308.15 K, 101.3 kPa, x1 = 0.1894	0.8039
308.15 K, 101.3 kPa, x1 = 0.2674	0.7793
308.15 K, 101.3 kPa, x1 = 0.3539	0.7578
308.15 K, 101.3 kPa, x1 = 0.4506	0.7384
308.15 K, 101.3 kPa, x1 = 0.5626	0.7191
308.15 K, 101.3 kPa, x1 = 0.6898	0.7052
308.15 K, 101.3 kPa, x1 = 0.8348	0.7051
318.15 K, 101 kPa, x2 = 0.0396	0.632
318.15 K, 101 kPa, x2 = 0.0718	0.627
318.15 K, 101 kPa, x2 = 0.1435	0.614
318.15 K, 101 kPa, x2 = 0.3225	0.601
318.15 K, 101 kPa, x2 = 0.4832	0.616
318.15 K, 101 kPa, x2 = 0.6269	0.634
318.15 K, 101 kPa, x2 = 0.7067	0.649
318.15 K, 101 kPa, x2 = 0.8205	0.68
318.15 K, 101 kPa, x2 = 0.8789	0.701
318.15 K, 101 kPa, x2 = 0.9548	0.736

CCCCOCC(C)O (centres undefined) + CCO
viscosity [mPa·s], 101.33 kPa
Conditions	298.15 K	308.15 K	318.15 K
x1 = 0.05	1.229	1.013	0.846
x1 = 0.1	1.344	1.103	0.915
x1 = 0.15	1.462	1.193	0.982
x1 = 0.2	1.585	1.279	1.046
x1 = 0.25	1.705	1.363	1.108
x1 = 0.3	1.813	1.442	1.166
x1 = 0.35	1.918	1.516	1.22
x1 = 0.4	2.022	1.589	1.273
x1 = 0.45	2.12	1.656	1.321
x1 = 0.5	2.211	1.724	1.365
x1 = 0.55	2.305	1.779	1.409
x1 = 0.6	2.384	1.841	1.445
x1 = 0.65	2.469	1.891	1.49
x1 = 0.7	2.536	1.935	1.517
x1 = 0.7499	2.608	1.983	1.55
x1 = 0.7998	2.674	2.035	1.58
x1 = 0.85	2.737	2.067	1.609
x1 = 0.8998	2.788	2.099	1.633
x1 = 0.95	2.841	2.135	1.647

COC(C)=O + CCO
298.15 K, 101.33 kPa
Conditions	viscosity [mPa·s]
x1 = 0.1146	0.833
x1 = 0.2045	0.695
x1 = 0.3207	0.574
x1 = 0.4245	0.506
x1 = 0.5004	0.467
x1 = 0.6077	0.438
x1 = 0.7989	0.399
x1 = 0.8802	0.39

COCCOC + CCO
298.15 K, 101 kPa
Conditions	viscosity [mPa·s]
x1 = 0.05375	0.9565
x1 = 0.1133	0.8329
x1 = 0.1797	0.7369
x1 = 0.2542	0.663
x1 = 0.3383	0.5931
x1 = 0.434	0.5444
x1 = 0.544	0.4926
x1 = 0.8215	0.4356

COC(C)=O + CCOC(C)=O
viscosity, 101 kPa
Conditions	298.15 K	313.15 K
x1 = 0.0544	0.432 mPa·s	0.372 mPa·s
x1 = 0.0916	0.429 mPa·s	0.37 mPa·s
x1 = 0.2242	0.418 mPa·s	0.361 mPa·s
x1 = 0.3041	0.412 mPa·s	0.357 mPa·s
x1 = 0.3995	0.405 mPa·s	0.351 mPa·s
x1 = 0.5024	0.399 mPa·s	0.346 mPa·s
x1 = 0.5482	0.396 mPa·s	0.344 mPa·s
x1 = 0.6054	0.392 mPa·s	0.341 mPa·s
x1 = 0.7024	0.387 mPa·s	0.337 mPa·s
x1 = 0.8025	0.381 mPa·s	0.333 mPa·s
x1 = 0.9028	0.377 mPa·s	0.33 mPa·s
x1 = 0.9548	0.376 mPa·s	0.33 mPa·s
x2 = 0.07815	0.3638 mPa·s	–
x2 = 0.189	0.3713 mPa·s	–
x2 = 0.3264	0.3801 mPa·s	–
x2 = 0.4453	0.3876 mPa·s	–
x2 = 0.5532	0.3943 mPa·s	–
x2 = 0.7914	0.4098 mPa·s and 0.4098 mPa·s	–
x2 = 0.8752	0.4158 mPa·s	–

COc1ccccc1N + CCOCCO
303.15 K, 101 kPa
Conditions	viscosity [mPa·s]
x1 = 0.0875	2.2
x1 = 0.1775	2.547
x1 = 0.2701	2.908
x1 = 0.3653	3.268
x1 = 0.4633	3.603
x1 = 0.5643	3.917
x1 = 0.6683	4.18
x1 = 0.7755	4.436
x1 = 0.886	4.681

COC(C)=O + CN1CCCC1=O
viscosity [mPa·s], 101 kPa
Conditions	x2 = 0.0845	x2 = 0.172	x2 = 0.2626	x2 = 0.3565	x2 = 0.4539	x2 = 0.5549	x2 = 0.6598	x2 = 0.7688	x2 = 0.8821
303.15 K	0.52	0.671	0.818	0.958	1.096	1.22	1.326	1.424	1.502
308.15 K	0.488	0.619	0.749	0.873	0.991	1.102	1.195	1.284	1.358
313.15 K	0.445	0.571	0.693	0.811	0.923	1.028	1.118	1.202	1.271
318.15 K	0.412	0.526	0.638	0.743	0.846	0.939	1.022	1.098	1.163

OCCNCCO + CN1CCCC1=O
viscosity [mPa·s], 101 kPa
Conditions	293.15 K	303.15 K	313.15 K	323.15 K
x2 = 0.1012	457.2	211.6	100.2	38.39
x2 = 0.1941	–	103.8	43.29	27
x2 = 0.2002	222.2	106.2	60.47	24.87
x2 = 0.3004	85.35	47.36	28.26	17.59
x2 = 0.4003	53.69	31.19	19.32	12.45
x2 = 0.4024	–	31.82	15.04	10.25
x2 = 0.4998	27.76	16.74	10.6	7.513
x2 = 0.5851	–	16.32	7.42	6.32
x2 = 0.6003	16.21	9.543	5.75	3.961
x2 = 0.7	7.618	5.537	4.107	3.18
x2 = 0.7962	–	8.38	4.04	3.22
x2 = 0.7997	4.326	3.448	2.746	2.257
x2 = 0.8994	2.841	2.318	1.927	1.63

CCC(C)=O + CN(C)C=O
298.15 K, 101 kPa
Conditions	viscosity [mPa·s]
x2 = 0.0395	0.387
x2 = 0.0843	0.403
x2 = 0.1186	0.414
x2 = 0.1681	0.43
x2 = 0.2276	0.451
x2 = 0.2773	0.471
x2 = 0.3768	0.499
x2 = 0.5116	0.547
x2 = 0.6168	0.581
x2 = 0.7438	0.662
x2 = 0.8079	0.698

OCCNCCO + CN(C)C=O
viscosity [mPa·s], 101 kPa
Conditions	298.15 K	303.15 K	308.15 K	313.15 K	318.15 K	323.15 K
x2 = 0.7704	2.703	2.509	2.34	2.172	2.034	1.879
x2 = 0.8119	2.172	2.009	1.842	1.682	1.542	1.427
x2 = 0.8519	1.853	1.686	1.559	1.429	1.295	1.204
x2 = 0.8907	1.53	1.423	1.321	1.206	1.115	1.03
x2 = 0.9283	1.357	1.238	1.14	1.043	0.9653	0.8984
x2 = 0.9647	1.169	1.097	1.02	0.9487	0.8828	0.8316

— the CheMixHub viscosity set
